{
  "source": "patent US20090215766A1",
  "about": "“TETRACYCLIC INHIBITORS OF JANUS KINASES” (Incyte Corporation, priority 2004, published 2009)",
  "origin": "cited, not measured here",
  "key": {"[1]": {"tested_on": "myeloid dendritic cells (DCs)", "details": "CD40-induced maturation of myeloid DCs"}, "[2]": {"tested_on": "NOD mouse model of autoimmune type 1 diabetes"}, "[3]": {"tested_on": "IL-6-dependent MM cell lines"}},
  "data": [
    {"smiles": "COc1cc2ncnc(Nc3ccc(O)c(Br)c3)c2cc1OC", "note": "[WHI-P-154]", "values": [
      {"measurement": "CD40-induced DC maturation effects (costimulatory molecule expression, IL-12 production, allogeneic stimulatory capacity)", "setting": "[1]", "value": "prevented these effects"}
    ]},
    {"smiles": "COc1cc2ncnc(Nc3ccc(O)cc3)c2cc1OC", "note": "[JANEX-1]", "values": [
      {"measurement": "onset of diabetes", "setting": "[2]", "value": "delayed the onset of diabetes"}
    ]},
    {"smiles": "N#C/C(=C\\c1ccc(O)c(O)c1)C(=O)NCc1ccccc1", "note": "[tyrphostin AG490]", "values": [
      {"measurement": "ERK2 and STAT3 phosphorylation", "setting": "[3]", "value": "inhibited"},
      {"measurement": "JAK2 kinase activity", "setting": "[3]", "value": "inhibited"},
      {"measurement": "apoptosis", "setting": "[3]", "value": "induced"},
      {"measurement": "cell proliferation", "setting": "[3]", "value": "suppressed"}
    ]}
  ]
}
